{"source": "patent US20230057359A1", "about": "“NOVEL USE OF STEVIOL” (SUNTORY HOLDINGS LIMITED, priority 2019, published 2023)", "assay_type_in_all_cases": "cell-based", "key": {"[1]": {"tested_on": "adipocytes differentiated from normal human subcutaneous preadipocytes", "assay": "Lipolysis test in adipocytes (free glycerol in culture supernatant)", "settings": "10 μM isoproterenol, 24 hours, No addition=100%", "experimental": "Normal human subcutaneous preadipocytes were precultured using the growth medium in the same manner as in Example 1. The cells were detached using 0.25% trypsin-EDTA, seeded at 10,000 cells/100 μL/well to a 96-well plate using the growth medium, and cultured overnight in a CO2 incubator. On the next day, the medium was replaced with the differentiation medium (100 μL), and the cells were cultured for 10 days in a CO2 incubator to induce their differentiation into adipocytes. On the fourth and seventh days after the differentiation induction, the medium was replaced with a fresh differentiation medium (100 μL). Next, the medium was replaced with a differentiation medium supplemented with varying concentrations of steviol (10, 30 or 100 μg/mL, dissolved in 0.1% DMSO (final concentration)), and the cells were cultured for 24 hours in a CO2 incubator. Then, a free glycerol level in a culture supernatant was measured using Adipolysis Assay Kit (Cat. No. 10009381, Cayman Chemical Co.) according to the manufacturer's protocol. For the measurement, absorbance (540 nm) was measured using a plate reader (VARIOSKAN FLASH, Thermo Fisher Scientific Inc.), and a relative free glycerol concentration was calculated. A differentiation medium supplemented with 10 μM isoproterenol (ISP) was used as a positive control, and a vehicle control (DMSO) composed of a differentiation medium supplemented with 0.1% DMSO (final concentration) and a no-addition control composed of only the differentiation medium were used as negative controls. Significant difference among the test groups to be compared (no-addition group vs positive control group, vehicle control group vs steviol addition group) was tested by the Student's t test. The two-tailed test was conducted, and P<0.05 was regarded as having significant difference."}, "HepG2 cells [2]": {"tested_on": "HepG2 cells", "assay": "Fat accumulation test in hepatocytes (oil red staining, oleic acid)", "settings": "2 mM metformin, 0.2 mM oleic acid, 24 hours, DMSO=100%", "experimental": "Normal human subcutaneous preadipocytes were precultured using the growth medium in the same manner as in Example 1. The cells were detached using 0.25% trypsin-EDTA, seeded at 10,000 cells/100 μL/well to a 96-well plate using a growth medium, and cultured overnight in a CO2 incubator. On the next day, the medium was replaced with 100 μL of a differentiation medium supplemented with varying concentrations of steviol (12.5, 25, 50, 100 or 200 μg/mL, dissolved in 0.1% DMSO (final concentration)). The cells were cultured for 10 days in a CO2 incubator to induce their differentiation into adipocytes. On the fourth and seventh days after the differentiation induction, the medium was replaced with a fresh medium (100 μL) having the same composition as above. A differentiation medium supplemented with 25 mM LiCl (Cat. No. SML0559, Sigma-Aldrich Co., LLC) was used as a positive control, and a differentiation medium supplemented with 0.1% DMSO (final concentration) was used as a negative control. Cells cultured in a growth medium were used as an untreated control (Untreated). The cells thus cultured were subjected to oil red staining. Specifically, the cells were washed twice with 100 μL of DPBS (Cat. No. 14190250, Thermo Fisher Scientific Inc.). Then, the cells were fixed (room temperature, 10 min) in 100 μL of a 10% formalin solution (Cat. No. 061-00416, FUJIFILM Wako Pure Chemical Corp.). The cells were washed twice with 100 μL of DPBS, then incubated for 1 minute in 100 μL of 60% 2-propanol (Cat. No. 166-04836, FUJIFILM Wako Pure Chemical Corp.) that replaced the medium, and stained for 15 minutes in 100 μL of an oil red staining solution (Cat. No. 00625, Sigma-Aldrich Co., LLC) that replaced the 2-propanol solution. The cells were washed once with 100 μL of 60% 2-propanol and washed twice with 100 μL of DPBS. Then, cell images were taken in 100 μL of DPBS. After subsequent replacement with 120 μL of 100% 2-propanol, oil red was extracted by incubation for 5 minutes, and 100 μL of the extracts was transferred to each well of a fresh 96-well plate. Absorbance (520 nm) was measured using a plate reader (VARIOSKAN FLASH, Thermo Fisher Scientific Inc.), and a relative fat accumulation level was calculated. Significant difference of differentiation non-induced group vs differentiation induced group (negative control group) was tested (two-tailed), and P<0.05 was regarded as having significant difference. Also, significant difference of negative control group vs steviol addition group/positive control group was tested (two-tailed) by the Dunnett test, and P<0.05 was regarded as having significant difference. […] HepG2 cells were precultured using the growth medium in the same manner as in Example 5. The cells were detached using 0.25% trypsin-EDTA, seeded at 30,000 cells/100 μL/well to a 96-well plate using the growth medium, and cultured overnight in a CO2 incubator. On the next day, the medium was replaced with 100 μL of a test medium (DMEM (high glucose) supplemented with 0.2 mM oleic acid (Cat. No. 03008, Sigma-Aldrich), 10% FBS and 1% penicillin-streptomycin) supplemented with varying concentrations of steviol (12.5, 25, 50, 100 or 200 μg/mL, dissolved in 0.1% DMSO (final concentration)). The cells were cultured for 24 hours in a CO2 incubator. A test medium supplemented with 2 mM metformin (Cat. No. M2009, Tokyo Chemical Industry Co., Ltd.) was used as a positive control (Metformin), and a vehicle control composed of a test medium supplemented with 0.1% DMSO (final concentration) was used as a negative control (DMSO). Cells cultured in a test medium containing no oleic acid was used as an untreated control (Untreated). The cells thus cultured were subjected to oil red staining in the same manner as in Example 3, followed by photographing and calculation of a relative fat accumulation level. […]"}, "HepG2 cells [3]": {"tested_on": "HepG2 cells", "assay": "TG accumulation test in hepatocytes (Adipogenesis Assay Kit, oleic acid)", "settings": "2 mM metformin, 0.2 mM oleic acid, 24 hours, DMSO=100%", "experimental": "HepG2 cells were precultured using the growth medium in the same manner as in Example 5. The cells were detached using 0.25% trypsin-EDTA, seeded at 30,000 cells/100 μL/well to a 96-well plate using the growth medium, and cultured overnight in a CO2 incubator. On the next day, the medium was replaced with 100 μL of a test medium (DMEM (high glucose) supplemented with 0.2 mM oleic acid (Cat. No. 03008, Sigma-Aldrich), 10% FBS and 1% penicillin-streptomycin) supplemented with varying concentrations of steviol (12.5, 25, 50, 100 or 200 μg/mL, dissolved in 0.1% DMSO (final concentration)). The cells were cultured for 24 hours in a CO2 incubator. A test medium supplemented with 2 mM metformin (Cat. No. M2009, Tokyo Chemical Industry Co., Ltd.) was used as a positive control (Metformin), and a vehicle control composed of a test medium supplemented with 0.1% DMSO (final concentration) was used as a negative control (DMSO). Cells cultured in a test medium containing no oleic acid was used as an untreated control (Untreated). The cells thus cultured were subjected to oil red staining in the same manner as in Example 3, followed by photographing and calculation of a relative fat accumulation level. An intracellular triglyceride (TG) level in cells separately cultured under the same conditions as in the cells employed in the oil red staining was quantified using Adipogenesis Assay Kit (BioVision Inc.) according to the manufacturer's protocol. Absorbance (570 nm) was measured using a plate reader (VARIOSKAN FLASH, Thermo Fisher Scientific Inc.), and a relative TG level was calculated. Significant difference of untreated group vs fat accumulation induction group (negative control group) was tested (two-tailed) by the Student's t test as to the relative fat accumulation level and the relative TG level, and P<0.05 was regarded as having significant difference. Also, significant difference of negative control group vs steviol addition group/positive control group was tested (two-tailed) by the Dunnett test, and P<0.05 was regarded as having significant difference. The results of the fat accumulation test are shown in Table 6 and FIG. 6, and the results of the TG accumulation test are shown in Table 7 and FIG. 7."}, "[4]": {"tested_on": "adipocytes differentiated from normal human subcutaneous preadipocytes", "assay": "Sugar uptake test in adipocytes (intracellular 2DG6P, Glucose Uptake-Glo)", "settings": "100 μM acadesine (AICAR), 4 hours, No addition=100%", "experimental": "Normal human subcutaneous preadipocytes were precultured using the growth medium in the same manner as in Example 1. The cells were detached using 0.25% trypsin-EDTA, seeded at 10,000 cells/100 μL/well to a 96-well plate using the growth medium, and cultured overnight in a CO2 incubator. On the next day, the medium was replaced with the differentiation medium (100 μL). The cells were cultured for 10 days in a CO2 incubator to induce their differentiation into adipocytes. On the fourth and seventh days after the differentiation induction, the medium was replaced with a fresh differentiation medium (100 μL). Next, the medium was replaced with 100 μLL of a serum-free medium (PBM-2 medium supplemented with 2 mM L-glutamine, 50 μg/mL gentamycin, and 37 ng/mL amphotericin-B, Cat. No. PT-8002, Lonza Group AG), and the cells were cultured for 18 hours in a CO2 incubator. Subsequently, the medium was replaced with 100 μL of a glucose-free serum-free medium (DMEM, no glucose, Cat. No. 11966025, Thermo Fisher Scientific Inc.) supplemented with varying concentrations of steviol (10, 30 or 100 μg/mL, dissolved in 0.1% DMSO (final concentration)), and the cells were cultured for 4 hours in a CO2 incubator. A glucose-free serum-free medium supplemented with 100 μM acadesine (AICAR, Cat. No. A9978, Sigma-Aldrich Co., LLC) was used as a positive control, and a vehicle control composed of a glucose-free serum-free medium supplemented with 0.1% DMSO (final concentration) and a no-addition control composed of only a glucose-free serum-free medium were used as negative controls. After culture, intracellular 2-deoxyglucose-6-phosphate (2DG6P, 2-deoxyglucose (2DG) phosphorylation product) level was measured by the following procedures using Glucose Uptake-Glo Assay kit (Cat. No. J1341, Promega Corp.). The medium of each well was replaced with a DPBS solution (50 μL) supplemented with 1 mM 2DG. After incubation at room temperature for 10 minutes, a stop buffer (25 μL), a neutralization buffer (25 μL), and a 2DG6P detection reagent (100 μL) were added thereto. After incubation at room temperature for 60 minutes, luminescence intensity was measured using a plate reader (VARIOSKAN FLASH, Thermo Fisher Scientific Inc.), and relative luminescence intensity was regarded as a relative intracellular 2DG6P level. Significant difference among the test groups to be compared (no-addition group vs positive control group, vehicle control group vs steviol addition group) was tested by the Student's t test. The two-tailed test was conducted, and P<0.05 was regarded as having significant difference."}, "[5]": {"tested_on": "normal human subcutaneous preadipocytes differentiated into adipocytes", "assay": "Fat accumulation test in adipocytes (oil red staining)", "settings": "25 mM LiCl, 10 days, DMSO=100%", "experimental": "Normal human subcutaneous preadipocytes were precultured using the growth medium in the same manner as in Example 1. The cells were detached using 0.25% trypsin-EDTA, seeded at 10,000 cells/100 μL/well to a 96-well plate using a growth medium, and cultured overnight in a CO2 incubator. On the next day, the medium was replaced with 100 μL of a differentiation medium supplemented with varying concentrations of steviol (12.5, 25, 50, 100 or 200 μg/mL, dissolved in 0.1% DMSO (final concentration)). The cells were cultured for 10 days in a CO2 incubator to induce their differentiation into adipocytes. On the fourth and seventh days after the differentiation induction, the medium was replaced with a fresh medium (100 μL) having the same composition as above. A differentiation medium supplemented with 25 mM LiCl (Cat. No. SML0559, Sigma-Aldrich Co., LLC) was used as a positive control, and a differentiation medium supplemented with 0.1% DMSO (final concentration) was used as a negative control. Cells cultured in a growth medium were used as an untreated control (Untreated). The cells thus cultured were subjected to oil red staining. Specifically, the cells were washed twice with 100 μL of DPBS (Cat. No. 14190250, Thermo Fisher Scientific Inc.). Then, the cells were fixed (room temperature, 10 min) in 100 μL of a 10% formalin solution (Cat. No. 061-00416, FUJIFILM Wako Pure Chemical Corp.). The cells were washed twice with 100 μL of DPBS, then incubated for 1 minute in 100 μL of 60% 2-propanol (Cat. No. 166-04836, FUJIFILM Wako Pure Chemical Corp.) that replaced the medium, and stained for 15 minutes in 100 μL of an oil red staining solution (Cat. No. 00625, Sigma-Aldrich Co., LLC) that replaced the 2-propanol solution. The cells were washed once with 100 μL of 60% 2-propanol and washed twice with 100 μL of DPBS. Then, cell images were taken in 100 μL of DPBS. After subsequent replacement with 120 μL of 100% 2-propanol, oil red was extracted by incubation for 5 minutes, and 100 μL of the extracts was transferred to each well of a fresh 96-well plate. Absorbance (520 nm) was measured using a plate reader (VARIOSKAN FLASH, Thermo Fisher Scientific Inc.), and a relative fat accumulation level was calculated. Significant difference of differentiation non-induced group vs differentiation induced group (negative control group) was tested (two-tailed), and P<0.05 was regarded as having significant difference. Also, significant difference of negative control group vs steviol addition group/positive control group was tested (two-tailed) by the Dunnett test, and P<0.05 was regarded as having significant difference."}}, "data": [{"smiles": "CC(C)NCC(O)c1ccc(O)c(O)c1", "note": "(centres unmarked) [ISP, isoproterenol, reference compound]", "values": [{"measurement": "Relative lipolysis level (%)", "setting": "[1]", "value": 184.4, "unit": "%"}]}, {"smiles": "CN(C)C(=N)N=C(N)N", "note": "[Metformin, metformin, reference compound]", "values": [{"measurement": "Relative fat accumulation level (%)", "setting": "HepG2 cells [2]", "value": 79.4, "unit": "%"}, {"measurement": "Relative TG level (%)", "setting": "HepG2 cells [3]", "value": 76.0, "unit": "%"}]}, {"smiles": "NC(=O)c1ncn([C@@H]2O[C@H](CO)[C@@H](O)[C@H]2O)c1N", "note": "[AICAR, acadesine, reference compound]", "values": [{"measurement": "Relative luminescence intensity (%) (relative intracellular 2DG6P level)", "setting": "[4]", "value": 194.9, "unit": "%"}]}, {"smiles": "[Cl-].[Li+]", "note": "[LiCl, reference compound]", "values": [{"measurement": "Relative fat accumulation level (%)", "setting": "[5]", "value": 56.3, "unit": "%"}]}]}
